Measurements as given in publication PMC3681608 (Nature chemical biology, 2010).
Counter-ions that a name gives are not always drawn.

What was measured:
[1] = target: CK1γ1 (Homo sapiens, UniProt Q9HCP0); experiment: fluorescence ligand dot blot with purified kinase at […] pyrvinium; assay type: binding
[2] = target: CK1ε (Homo sapiens, UniProt P49674); experiment: as above; assay type: binding
CK1ε, sequence (P49674 whole entry): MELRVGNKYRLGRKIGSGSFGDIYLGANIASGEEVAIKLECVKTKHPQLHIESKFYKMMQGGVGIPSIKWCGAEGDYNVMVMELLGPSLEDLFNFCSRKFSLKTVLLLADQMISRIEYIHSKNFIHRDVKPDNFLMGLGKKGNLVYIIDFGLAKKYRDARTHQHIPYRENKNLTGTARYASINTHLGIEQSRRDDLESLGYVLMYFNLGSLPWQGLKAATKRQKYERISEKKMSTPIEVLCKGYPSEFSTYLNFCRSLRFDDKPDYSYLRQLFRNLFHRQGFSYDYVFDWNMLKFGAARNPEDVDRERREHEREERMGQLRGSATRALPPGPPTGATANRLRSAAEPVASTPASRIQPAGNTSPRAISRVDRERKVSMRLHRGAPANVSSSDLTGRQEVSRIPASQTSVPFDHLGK

CK1γ1, sequence (Q9HCP0 whole entry): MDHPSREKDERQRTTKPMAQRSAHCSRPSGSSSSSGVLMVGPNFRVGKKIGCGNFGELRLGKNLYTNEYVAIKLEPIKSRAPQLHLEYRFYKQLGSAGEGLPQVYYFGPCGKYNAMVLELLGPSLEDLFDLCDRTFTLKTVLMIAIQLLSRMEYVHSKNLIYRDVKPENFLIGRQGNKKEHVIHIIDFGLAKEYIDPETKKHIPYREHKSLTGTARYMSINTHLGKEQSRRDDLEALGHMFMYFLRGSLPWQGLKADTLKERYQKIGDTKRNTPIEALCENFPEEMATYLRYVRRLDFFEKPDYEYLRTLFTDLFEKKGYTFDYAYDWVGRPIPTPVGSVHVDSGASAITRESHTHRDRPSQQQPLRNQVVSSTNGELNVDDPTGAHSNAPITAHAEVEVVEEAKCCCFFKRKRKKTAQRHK

## Cc1cc(/C=C/c2ccc3cc(N(C)C)ccc3[n+]2C)c(C)n1-c1ccccc1 [compound 1, 6-(dimethylamino)-2-[2-(2,5-dimethyl-1-phenyl-1H-pyrrol-3-yl)ethenyl]-1-me thyl-quinolinium pamoate salt]
[1]
  fluorescence ligand dot blot with purified kinase at 10 nM pyrvinium: Pyrvinium binds all full-length CK1 isoforms tested but only activates CK1α.
[2]
  fluorescence ligand dot blot with purified kinase at 10 nM pyrvinium: Pyrvinium binds all full-length CK1 isoforms tested but only activates CK1α.
